Laboratory results reported in article doi:10.1101/2024.07.07.602414v1 (bioRxiv, 2024).

Legend:
[1] = Redox controlled droplet formation through LLPS; format: physicochemical
Droplet microstructure = format: physicochemical; details: CLSM and fast FLIM with SBD dye, 448 nm excitation
[2] = Encapsulation efficiency of guest fluorophores by droplets; format: physicochemical
[3] = format: physicochemical; details: 30 mg/mL, CLSM and fast FLIM

YCGY
solubility in aqueous solution ([1]; aqueous solution, words only): very good solubility | state of the droplet emulsion after adding DTT ([1]; oxidised peptide, then DTT, 5 mins at room temperature, CLSM / bright field): clear solution | concentration at which the peptide still does not undergo LLPS ([1]; reduced (thiol) peptide, aqueous solution): 80000 µg/mL

YGYY
droplet microstructure (core-shell or homogeneous) (Droplet microstructure): show similar results with the R group

YRYY
droplet microstructure (core-shell or homogeneous) (Droplet microstructure): formed homogeneous droplets

WYWW
behaviour of droplets when the fluorophores were added, pH 7.5 ([2]; pH 7.5, fluorophores added): tend to aggregates | behaviour of droplets when the fluorophores were added, pH 9.0 ([2]; pH 9.0, fluorophores added): relatively stable

WCRY
droplet microstructure before oxidation ([3]; pH 7.5 (1 M NaOH), SBD dye): forms homogeneous droplets | droplet microstructure after oxidation by H2O2 ([3]; pH 7.5, 1 μL H2O2 (1M), 5 mins at room temperature): transform into the multiphasic droplets

WGWW
droplet microstructure (core-shell or homogeneous) (Droplet microstructure): show similar results with the R group
